IC50 data for eleven molecules are collected here from patent US9346812B2, “Substituted pyrrolopyrimidine compounds, compositions thereof, and methods of treatment therewith” (Signal Pharmaceutical LLC, priority 2013, dated 2016).

Where only a bound is given, the exact number is not on record here.

The test system of the assay is CAL51 cell proliferation. The experiment in a line: Cell Titer Glo Proliferation Assay (CAL51). The format is cell-based, human. To be noted: Homo sapiens, CAL-51; CAL51 cell proliferation, 72 h, Cell Titer Glo luminescence; read-out: Act. Level. An outline of the steps:
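CAL51 triple-negative breast cancer cells in DMEM or RPMI with 10% FBS were treated after overnight culture with serially diluted compound at 0.2% final DMSO. After 72 h, viability was read as CellTiter-Glo luminescence.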
On the technique in general: In ATP-based viability assays light output follows the ATP content of the culture.

For the molecule `COc1cc(C(=O)NC2CCCC2)ccc1Nc1nc(OC2CCCC2)c2c(-c3ccc4nc(C)oc4c3)c[nH]c2n1` [Example 229, N-cyclopentyl-4-(4-(cyclopentyl-oxy)-5-(2-methylbenzo[d]oxazol-6-yl)-7H-pyrrolo[2,3-d]pyrimidin-2-ylamino)-3-methoxybenzamide], the IC50 was in the range of 400 to 1000 nM.

As for `CNC(=O)c1ccc(Nc2nc(OC3CCCC3)c3c(-c4ccc(OC)cc4)c[nH]c3n2)c(OC)c1` [Example 76, 4-(4-(cyclopentyloxy)-5-(4-methoxyphenyl)-7H-pyrrolo[2,3-d]pyrimidin-2-ylamino)-3-methoxy-N-methylbenzamide], the IC50 was less than 100 nM.

Consider `COc1cc(C(=O)NC2COC2)ccc1Nc1nc(OC2CCC2)c2c(-c3cnn(C)c3)c[nH]c2n1` [Example 302, 4-(4-cyclobutoxy-5-(1-methyl-1H-pyrazol-4-yl)-7H-pyrrolo[2,3-d]pyrimidin-2-ylamino)-3-methoxy-N-(oxetan-3-yl) benzamide], for which the IC50 was 100 to 400 nM.

For the molecule `COc1cc(C(=O)NCC2CCOCC2)ccc1Nc1nc(OC2CCCC2)c2c(-c3ccc4nc(C)oc4c3)c[nH]c2n1` [Example 243, 4-(4-(cyclopentyloxy)-5-(2-methylbenzo[d]oxazol-6-yl)-7H-pyrrolo[2,3-d]pyrimidin-2-ylamino)-3-methoxy-N-((tetrahydro-2H-pyran-4-yl)methyl)benzamide], the IC50 lay in the range of 100 to 400 nM.

Consider `Cc1nc2ccc(-c3c[nH]c4nc(Nc5ccc(C(=O)N(C)C)cc5C)nc(OC5CCOCC5)c34)cc2[nH]1` [Example 128, N,N,3-trimethyl-4-(5-(2-methyl-1H-benzo[d]imidazol-6-yl)-4-(tetrahydro-2H-pyran-4-yloxy)-7H-pyrrolo[2,3-d]pyrimidin-2-ylamino)benzamide], for which the IC50 is less than 100 nM.

For the molecule `Cc1nc2ccc(-c3c[nH]c4nc(Nc5ccc6c(c5)CN(C)C6=O)nc(OC5CCCC5)c34)cc2o1` [Example 244, 5-(4-(cyclopentyloxy)-5-(2-methylbenzo[d]oxazol-6-yl)-7H-pyrrolo[2,3-d]pyrimidin-2-ylamino)-2-methylisoindolin-1-one], the IC50 was less than 100 nM.

For `COc1cc(C(=O)N(C)C)ccc1Nc1nc(OC2CCCC2)c2c(-c3ccc4nc(C)oc4c3)c[nH]c2n1` [Example 91, 4-(4-(cyclopentyloxy)-5-(2-methylbenzo[d]oxazol-6-yl)-7H-pyrrolo[2,3-d]pyrimidin-2-ylamino)-3-methoxy-N,N-dimethylbenzamide], the IC50 fell in the range of 100 to 400 nM.

Regarding `COc1cc(C(=O)N(C)C)ccc1Nc1nc(O[C@@H]2CCOC2)c2c(-c3ccc4nc(C)oc4c3)c[nH]c2n1` [Example 222, (R)-3-methoxy-N,N-dimethyl-4-(5-(2-methylbenzo[d]oxazol-6-yl)-4-(tetrahydrofuran-3-yloxy)-7H-pyrrolo[2,3-d]pyrimidin-2-ylamino)benzamide], the IC50 was less than 100 nM.

In the case of `CNC(=O)c1ccc(Nc2nc(OC3CCOCC3)c3c(-c4nccn4C)c[nH]c3n2)c(OC)c1` [Example 172, 3-methoxy-N-methyl-4-(5-(1-methyl-1H-imidazol-2-yl)-4-(tetrahydro-2H-pyran-4-yloxy)-7H-pyrrolo[2,3-d]pyrimidin-2-ylamino)benzamide], the IC50 was 1000 to 10000 nM.

Turning to `CNC(=O)c1ccc(Nc2nc(OC3CCCC3)c3c(-c4ccc(N(C)C)cc4)c[nH]c3n2)c(OC)c1` [Example 75, 4-(4-(cyclopentyloxy)-5-(4-(di-methylamino)phenyl)-7H-pyrrolo [2,3-d]pyrimidin-2-ylamino)-3-methoxy-N-methylbenzamide], the IC50 is less than 100 nM.

`CNC(=O)c1ccc(Nc2nc(OC(C)C)c3c(-c4ccn(C)n4)c[nH]c3n2)c(OC)c1` [Example 220, 4-(4-isopropoxy-5-(1-methyl-1H-pyrazol-3-yl)-7H-pyrrolo[2,3-d]pyrimidin-2-ylamino)-3-methoxy-N-methylbenzamide]: the IC50 lay within 1000 to 10000 nM.
